The subject of one experiment is Hs-578T. The experiment can be described thus: NCI anticancer screen, dose series, 48 h.
In another experiment the test system is MDA-N. The experiment can be described thus: NCI anticancer screen, dose series, 48 h.

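These data come from cells grown in 96-well plates and exposed to compound for 48 hours at five concentrations. GI50 marks 50% less growth.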 The source made the active and inactive calls. Rule as the data show it: active = GI50 up to about 1.1 µM and inactive = higher.

The text below walks through data of ChEMBL document CHEMBL1201862, “PubChem BioAssay data set” (2004).

On to `CCOC(=O)C1CCC(=O)N1C(=O)c1cccc(Cl)c1` (stereo not given), for which the GI50 with Hs-578T and in the experiment on MDA-N was > 100 µM (inactive) throughout.

Regarding `COc1cc(C2=C(c3cc(OC)c4ccccc4c3OC)C(=O)c3ccccc3C2=O)c(OC)c2ccccc12`, the GI50 in the experiment on Hs-578T and with MDA-N was > 100 µM (inactive) throughout. `Cc1ccc2c(c1)C(=O)/C(=N/Nc1ccc(Cl)cc1)CCO2`: the GI50 with Hs-578T was 35.4 µM (inactive); with MDA-N it was 65.3 µM (inactive). Regarding `CCCCCCCCCCCCCC(=O)O.O=CC(O)C(O)C(OC1OC(CO)C(O)C(O)C1O)C(O)CO` (stereo not given), the GI50 with Hs-578T is > 100 µM (inactive). Turning to `Cc1cc(C(F)(F)F)cc(-n2nc(NS(=O)(=O)c3cc(C)c(Cl)cc3S)nc2N)n1`, the GI50 with Hs-578T was 41 µM (inactive); with MDA-N it was 52.8 µM (inactive).

`COP(=O)(OC)C(C)(C)NC(=O)NC(F)(F)F`: the GI50 in the experiment with Hs-578T was 31.1 µM (inactive); with MDA-N, > 100 µM (inactive).

With `Cc1c(Cl)ccc2c(=O)c3cccc(CC(=O)O)c3oc12`, the GI50 in the experiment on Hs-578T and in the experiment with MDA-N was > 100 µM (inactive) each time. Consider `O=c1cc(NNc2cccc3ccccc23)[nH]c(=O)[nH]1`, for which the figures for the GI50 with Hs-578T and in the experiment on MDA-N were 26.2 µM (inactive) and 12.1 µM (inactive), respectively.

Consider `Cc1cccc2c1CC(C1OC(=O)c3ccccc31)C2=O` (stereo not given), for which the GI50 in the experiment on Hs-578T and in the experiment on MDA-N was > 100 µM (inactive) each time. Regarding `CC(=O)NC1C(OCc2ccccc2)OC(CO)C(O)C1OCC(=O)NC(C)C(=O)NC(CCC(=O)OCCNC(=O)c1cccc2cc3ccccc3nc12)C(N)=O` (stereo not given), in the experiment on MDA-N, the GI50 was 26.4 µM (inactive). As to `Fc1ccc(C2(CCCN3CCc4[nH]c5cc(F)ccc5c4C3)OCCO2)cc1`, the GI50 in the experiment with Hs-578T was 3.92 µM (inactive). Take `O=C1NC(N2CCCCC2)=N/C1=C\c1ccccc1O`: the GI50 in the experiment with Hs-578T was 77.3 µM (inactive); in the experiment on MDA-N, > 100 µM (inactive). For `Cc1ccc(N)c(S)c1` the same measures were 38 µM (inactive) and 14.9 µM (inactive).

As for `c1ccc([P+](CCCCCC[P+](c2ccccc2)(c2ccccc2)c2ccccc2)(c2ccccc2)c2ccccc2)cc1`, the GI50 in the experiment with Hs-578T is 15.3 µM (inactive); in the experiment on MDA-N, 16.1 µM (inactive). For `CC1=C(C)C2(C#N)C(=O)N3C(=NC(c4ccccc4)NC3c3ccccc3)C2(C#N)C(c2ccccc2)N1` (stereo not given), in that order: > 100 µM (inactive) and > 100 µM (inactive). For `CCOC(=O)O/N=C1/C(=C2/C(=O)Nc3ccccc32)Nc2ccccc21`, in that order: 2.9 µM (inactive) and 3.91 µM (inactive). For `CC(C)(C)OC(=O)NC(Cc1ccc(OCc2ccccc2)cn1)C(=O)N1CCCCC1` (stereo not given) the same measures were 67.3 µM (inactive) and 28.1 µM (inactive). Take `O=C1c2ccccc2C(=O)N1c1nc(-c2ccc(Cl)cc2)cc(N2N=C(c3ccc(Br)cc3)CC2c2ccccc2)n1` (stereo not given): the GI50 was 3.74 µM (inactive) with Hs-578T and 1.03 µM (active) in the experiment on MDA-N.

In the case of `COC(=O)CC1C=CC(C)(OC)OO1` (stereo not given), the GI50 with Hs-578T and in the experiment with MDA-N was > 100 µM (inactive) in each case. For `N#CC1(C#N)NC(c2ccsc2)C(C#N)(C#N)NC1c1ccsc1` (stereo not given), the GI50 in the experiment with Hs-578T and in the experiment with MDA-N was > 100 µM (inactive) throughout. As to `O=c1c2c(sc3ccccc13)NCN(CCc1ccccc1)C2`, in the experiment with MDA-N, the GI50 was 25.6 µM (inactive). For `CCNC1=C(NC(=O)c2ccccc2)C(=O)c2ccccc2C1=O`, the results for the GI50 in the experiment with Hs-578T and with MDA-N were 38.7 µM (inactive) and 4.9 µM (inactive), respectively. As to `CC1=CC[C@](C)(O)[C@@]2(C)CC[C@H]3C(=C(C)C)C(=O)C[C@]3(C)C[C@H]12`, the GI50 in the experiment with Hs-578T is 38.2 µM (inactive). On the same count and under the same terms, as for `CC(=O)OCC12CN(C#N)C3C4COC(CC41)C1(C(=O)N(C)c4ccccc41)C32` (stereo not given), the figure is 18.2 µM (inactive). For the molecule `CC1NCCC(CC(=O)O)C1CC(=O)O` (stereo not given), the GI50 in the experiment with Hs-578T and in the experiment on MDA-N was > 100 µM (inactive) in each case. As to `FC1(F)ON2CCc3ccccc3C2[C@H]1c1ccccc1` (stereo not given in full), the values for the GI50 in the experiment on Hs-578T and in the experiment with MDA-N were 4.25 µM (inactive) and > 10 µM (inactive), respectively. For `Cc1cc(N2CCN(C)CC2)n2nc(-c3ccc(Cl)cc3)nc2n1` the same measures were > 100 µM (inactive) and 92.9 µM (inactive). Take `Cc1cccc(Br)[n+]1[O-]`: in the experiment with Hs-578T, the GI50 was > 100 µM (inactive).

For `CN(C)CCCNc1ccc2nnn3c4ccc(OC(=O)c5ccccc5)cc4c(=O)c1c23`, the values for the GI50 with Hs-578T and with MDA-N were 18.3 µM (inactive) and 13.8 µM (inactive), respectively. For `C#CC(O)/C=C/C(O)CCCC(O)CC#CC(O)C#CC(O)CCCC(O)/C=C/CCCC(=O)CCCCCCCCCCCCCCCC(O)C(O)C#CC(=O)O` (stereo not given), in that order: > 50 µM (inactive) and > 50 µM (inactive).

Regarding `Cc1ccc(/C=C2\CN(C)CC3C(c4ccc(C)cc4)=C(C#N)C(=O)NC23)cc1` (stereo not given), the GI50 with Hs-578T and with MDA-N was > 50 µM (inactive) throughout. Consider `NC(=O)NCCCC(NC(=O)OCCCCCn1ccc(=O)[nH]c1=O)C(=O)O` (stereo not given), for which the GI50 with Hs-578T and in the experiment with MDA-N was > 100 µM (inactive) each time. Consider `COc1ccc(C(=O)CC(c2ccc(OC)c(OC)c2)c2c(O)oc3ccccc3c2=O)cc1OC` (stereo not given), for which the GI50 with Hs-578T and in the experiment with MDA-N was > 100 µM (inactive) each time. Regarding `O=C(/C=C/c1ccc2c(c1)OCO2)NCc1ccco1`, the GI50 in the experiment on Hs-578T and with MDA-N was > 100 µM (inactive) each time. For `COC(=O)C1=C(C(=O)OC)C2(c3ccccc3)c3ccccc3C(=O)C1N2C1CCCCC1` (stereo not given), the GI50 in the experiment with Hs-578T is 40.9 µM (inactive); in the experiment on MDA-N, > 65 µM (inactive). On to `O=C(O)c1nc2ccc(C(F)(F)F)cc2nc1NCc1ccc(F)cc1`, for which the GI50 in the experiment on MDA-N was 28 µM (inactive). Take `CCN(CC)CCn1c(=O)c2ccccc2n2c3c(=O)n(C)c(=O)n(C)c3nc12`: the values for the GI50 in the experiment on Hs-578T and in the experiment with MDA-N were 2.01 µM (inactive) and 4.85 µM (inactive), respectively. Regarding `N=C(N)N/N=C/c1c(-c2ccccc2)nc2ccn3c(/C=N/N=C(N)N)c(-c4ccccc4)nc3n12`, the GI50 with Hs-578T is 39.5 µM (inactive). With `O=C1CC2(CCNCC2)C(=O)N1N1CCCC1`, in the experiment with MDA-N, the GI50 is > 100 µM (inactive). On to `COC(=O)c1ccccc1C1CN=NC12Cc1ccc3ccccc3c1C2=O` (stereo not given), for which the GI50 with Hs-578T is 94.4 µM (inactive); in the experiment with MDA-N, > 100 µM (inactive). For `COc1ccc(N2C(=O)CC(=O)N(NC(=O)C(C)Oc3ccccc3C)C2=S)cc1` (stereo not given), in that order: > 100 µM (inactive) and > 100 µM (inactive). For `O=S1(=O)CCN(Cc2ccccn2)CC1` the same measures were > 100 µM (inactive) and > 100 µM (inactive).

`O=c1[nH]nc(-c2ccccc2)n1-c1cccc([N+](=O)[O-])c1`: the GI50 with Hs-578T and in the experiment on MDA-N was > 100 µM (inactive) throughout. With `Cc1n[nH]c(=O)n1/N=C/c1ccco1`, the GI50 in the experiment on Hs-578T was > 100 µM (inactive). Consider `COc1ccc(C2c3cc4c(cc3OC(N3CCCCC3)C2C)OCO4)cc1` (stereo not given), for which the GI50 in the experiment with Hs-578T is 33.6 µM (inactive); in the experiment on MDA-N it was > 100 µM (inactive). For `COc1ccc2c(c1)N=C1CSC(c3cc([N+](=O)[O-])ccc3Cl)N1C2` (stereo not given) the same measures were 39.8 µM (inactive) and 20.1 µM (inactive). For `FC(F)(F)C1(c2ccccc2)SCc2nc3ccccc3n21` (stereo not given) the same measures were > 100 µM (inactive) and 38.3 µM (inactive). For `Cc1cc(N2CCCCC2)nc2ccc(Cc3ccc4nc(N5CCCCC5)cc(C)c4c3)cc12` the same measures were > 100 µM (inactive) and > 100 µM (inactive).
